{"source": "paper PMC7211203", "about": "(European Journal of Drug Metabolism and Pharmacokinetics, 2020)", "key": {"[1]": {"assay_type": "in vivo, human", "conditions": "for AUC0–24 / Cmax / t1/2: mean (SD); for tmax: median (minimum, maximum)"}, "[2]": {"target": "T1, CYP3A4 (Homo sapiens, UniProt P08684)", "T1 sequence (P08684 whole entry)": "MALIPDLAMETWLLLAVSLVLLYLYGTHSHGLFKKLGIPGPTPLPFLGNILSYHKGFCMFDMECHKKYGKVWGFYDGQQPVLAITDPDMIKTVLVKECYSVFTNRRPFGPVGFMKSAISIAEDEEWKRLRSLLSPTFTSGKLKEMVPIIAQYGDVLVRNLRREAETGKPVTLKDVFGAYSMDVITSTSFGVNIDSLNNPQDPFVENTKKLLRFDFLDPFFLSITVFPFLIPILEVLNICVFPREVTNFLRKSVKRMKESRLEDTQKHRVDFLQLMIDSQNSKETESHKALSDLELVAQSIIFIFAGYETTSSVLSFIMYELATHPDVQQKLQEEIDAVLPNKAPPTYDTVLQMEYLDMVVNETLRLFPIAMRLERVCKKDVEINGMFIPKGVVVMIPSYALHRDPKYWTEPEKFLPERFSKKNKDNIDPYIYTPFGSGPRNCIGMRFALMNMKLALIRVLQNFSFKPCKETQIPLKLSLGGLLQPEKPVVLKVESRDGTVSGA", "assay_type": "in vivo"}, "[3]": {"target": "T1, CYP3A4", "conditions": "18 patients with solid tumors, before/after design; cited from earlier work"}, "[4]": {"conditions": "D −3, patients of comparison D1 vs D −3"}, "[5]": {"conditions": "D −3, patients of comparison D14 vs D −3"}, "[6]": {"conditions": "Day 1, with single dose of lenvatinib"}, "[7]": {"conditions": "Day 14, with lenvatinib at steady state"}, "[8]": {"conditions": "D1 vs D −3 (single dose of lenvatinib 24 mg)"}, "[9]": {"conditions": "D14 vs D −3 (lenvatinib 24 mg at steady state)"}}, "note": "Like-named read-outs stand apart in the source and are kept apart here."}
{"smiles": "OCc1ncc2n1-c1ccc(Cl)cc1C(c1ccccc1F)=NC2", "note": "[1′-OH midazolam, 1′-hydroxy-midazolam]", "values": [{"measurement": "Plasma concentration, mean (standard deviation)", "setting": "[1]; 0.5 h, D1 1 dose of lenvatinib and midazolam", "result": "10.433 (11.8436) ng/mL"}, {"measurement": "Plasma concentration, mean (standard deviation)", "setting": "[1]; 0.5 h, D14 multiple doses of lenvatinib and 1 dose of midazolam", "result": "8.048 (12.1629) ng/mL"}, {"measurement": "Plasma concentration, mean (standard deviation)", "setting": "[1]; 0.5 h, D −3 midazolam only", "result": "7.929 (8.1952) ng/mL"}, {"measurement": "Plasma concentration, mean (standard deviation)", "setting": "[1]; 1 h, D1 1 dose of lenvatinib and midazolam", "result": "9.230 (9.8222) ng/mL"}, {"measurement": "Plasma concentration, mean (standard deviation)", "setting": "[1]; 1 h, D14 multiple doses of lenvatinib and 1 dose of midazolam", "result": "8.884 (8.9281) ng/mL"}, {"measurement": "Plasma concentration, mean (standard deviation)", "setting": "[1]; 1 h, D −3 midazolam only", "result": "8.259 (6.9675) ng/mL"}, {"measurement": "Plasma concentration, mean (standard deviation)", "setting": "[1]; 1.5 h, D1 1 dose of lenvatinib and midazolam", "result": "8.265 (9.0440) ng/mL"}, {"measurement": "Plasma concentration, mean (standard deviation)", "setting": "[1]; 1.5 h, D14 multiple doses of lenvatinib and 1 dose of midazolam", "result": "7.314 (6.7286) ng/mL"}, {"measurement": "Plasma concentration, mean (standard deviation)", "setting": "[1]; 1.5 h, D −3 midazolam only", "result": "7.307 (5.9056) ng/mL"}, {"measurement": "Plasma concentration, mean (standard deviation)", "setting": "[1]; 2 h, D1 1 dose of lenvatinib and midazolam", "result": "6.921 (8.0144) ng/mL"}, {"measurement": "Plasma concentration, mean (standard deviation)", "setting": "[1]; 2 h, D14 multiple doses of lenvatinib and 1 dose of midazolam", "result": "5.767 (5.0953) ng/mL"}, {"measurement": "Plasma concentration, mean (standard deviation)", "setting": "[1]; 2 h, D −3 midazolam only", "result": "5.736 (4.1774) ng/mL"}, {"measurement": "Plasma concentration, mean (standard deviation)", "setting": "[1]; 3 h, D1 1 dose of lenvatinib and midazolam", "result": "4.888 (7.3050) ng/mL"}, {"measurement": "Plasma concentration, mean (standard deviation)", "setting": "[1]; 3 h, D14 multiple doses of lenvatinib and 1 dose of midazolam", "result": "4.027 (3.2372) ng/mL"}, {"measurement": "Plasma concentration, mean (standard deviation)", "setting": "[1]; 3 h, D −3 midazolam only", "result": "3.698 (2.9719) ng/mL"}, {"measurement": "Plasma concentration, mean (standard deviation)", "setting": "[1]; 4 h, D1 1 dose of lenvatinib and midazolam", "result": "3.395 (5.2011) ng/mL"}, {"measurement": "Plasma concentration, mean (standard deviation)", "setting": "[1]; 4 h, D14 multiple doses of lenvatinib and 1 dose of midazolam", "result": "2.919 (2.1611) ng/mL"}, {"measurement": "Plasma concentration, mean (standard deviation)", "setting": "[1]; 4 h, D −3 midazolam only", "result": "2.359 (1.9899) ng/mL"}, {"measurement": "Plasma concentration, mean (standard deviation)", "setting": "[1]; 6 h, D1 1 dose of lenvatinib and midazolam", "result": "2.059 (2.3381) ng/mL"}, {"measurement": "Plasma concentration, mean (standard deviation)", "setting": "[1]; 6 h, D14 multiple doses of lenvatinib and 1 dose of midazolam", "result": "1.773 (1.4213) ng/mL"}, {"measurement": "Plasma concentration, mean (standard deviation)", "setting": "[1]; 6 h, D −3 midazolam only", "result": "1.447 (1.4379) ng/mL"}, {"measurement": "Plasma concentration, mean (standard deviation)", "setting": "[1]; 8 h, D1 1 dose of lenvatinib and midazolam", "result": "1.132 (1.0593) ng/mL"}, {"measurement": "Plasma concentration, mean (standard deviation)", "setting": "[1]; 8 h, D14 multiple doses of lenvatinib and 1 dose of midazolam", "result": "1.372 (1.2790) ng/mL"}, {"measurement": "Plasma concentration, mean (standard deviation)", "setting": "[1]; 8 h, D −3 midazolam only", "result": "1.024 (0.9525) ng/mL"}, {"measurement": "Plasma concentration, mean (standard deviation)", "setting": "[1]; 10 h, D1 1 dose of lenvatinib and midazolam", "result": "0.852 (0.7166) ng/mL"}, {"measurement": "Plasma concentration, mean (standard deviation)", "setting": "[1]; 10 h, D14 multiple doses of lenvatinib and 1 dose of midazolam", "result": "1.055 (1.0511) ng/mL"}, {"measurement": "Plasma concentration, mean (standard deviation)", "setting": "[1]; 10 h, D −3 midazolam only", "result": "0.767 (0.6376) ng/mL"}, {"measurement": "Plasma concentration, mean (standard deviation)", "setting": "[1]; 24 h, D1 1 dose of lenvatinib and midazolam", "result": "0.186 (0.1472) ng/mL"}, {"measurement": "Plasma concentration, mean (standard deviation)", "setting": "[1]; 24 h, D14 multiple doses of lenvatinib and 1 dose of midazolam", "result": "0.282 (0.1998) ng/mL"}, {"measurement": "Plasma concentration, mean (standard deviation)", "setting": "[1]; 24 h, D −3 midazolam only", "result": "0.158 (0.1110) ng/mL"}, {"measurement": "AUC0–24 geometric mean, lenvatinib + midazolam (test)", "setting": "[1]; D1, comparison D1 vs D −3", "result": 37.91, "unit": "ng·h/mL"}, {"measurement": "Cmax geometric mean, lenvatinib + midazolam (test)", "setting": "[1]; D1, comparison D1 vs D −3", "result": 9.54, "unit": "ng/mL"}, {"measurement": "AUC0–24 geometric mean, lenvatinib + midazolam (test)", "setting": "[1]; D14, comparison D14 vs D −3", "result": 36.93, "unit": "ng·h/mL"}, {"measurement": "Cmax geometric mean, lenvatinib + midazolam (test)", "setting": "[1]; D14, comparison D14 vs D −3", "result": 8.24, "unit": "ng/mL"}, {"measurement": "AUC0–24 geometric mean, midazolam (reference)", "setting": "[1]; [4]", "result": 33.84, "unit": "ng·h/mL"}, {"measurement": "Cmax geometric mean, midazolam (reference)", "setting": "[1]; [4]", "result": 9.04, "unit": "ng/mL"}, {"measurement": "AUC0–24 geometric mean, midazolam (reference)", "setting": "[1]; [5]", "result": 30.81, "unit": "ng·h/mL"}, {"measurement": "Cmax geometric mean, midazolam (reference)", "setting": "[1]; [5]", "result": 8.76, "unit": "ng/mL"}, {"measurement": "AUC0–24", "setting": "[1]; Day 1, midazolam with single dose of lenvatinib 24 mg, n = 28", "result": "48.6 (47.8) ng × h/mL"}, {"measurement": "Cmax", "setting": "[1]; [6]", "result": "12.7 (11.6) ng/mL"}, {"measurement": "t1/2", "setting": "[1]; [6]", "result": "5.48 (2.26) h"}, {"measurement": "tmax", "setting": "[1]; [6]", "result": "0.75 (0.25, 2.00) h"}, {"measurement": "AUC0–24", "setting": "[1]; Day 14, midazolam with lenvatinib at steady state, n = 19", "result": "41.3 (34.3) ng × h/mL"}, {"measurement": "Cmax", "setting": "[1]; [7]", "result": "10.7 (11.6) ng/mL"}, {"measurement": "t1/2", "setting": "[1]; [7]", "result": "5.53 (1.99) h"}, {"measurement": "tmax", "setting": "[1]; [7]", "result": "0.77 (0.25, 1.50) h"}, {"measurement": "AUC0–24", "setting": "[1]; Day −3, midazolam 4 mg oral alone, n = 29", "result": "38.5 (26.5) ng × h/mL"}, {"measurement": "Cmax", "setting": "[1]; Day −3, midazolam alone", "result": "11.0 (8.64) ng/mL"}, {"measurement": "t1/2", "setting": "[1]; Day −3, midazolam alone", "result": "5.58 (1.15) h"}, {"measurement": "tmax", "setting": "[1]; Day −3, midazolam alone", "result": "0.75 (0.25, 2.02) h"}, {"measurement": "Change in t1/2 when administered with lenvatinib", "setting": "[2]; D1 and D14 vs D −3", "result": "no statistically significant change"}, {"measurement": "Difference in median tmax", "setting": "[2]; D1 vs D −3", "result": 0.00, "unit": "h"}, {"measurement": "AUC0–24 geometric mean ratio (test/reference)", "setting": "[2]; [8]", "result": 1.120}, {"measurement": "Cmax geometric mean ratio (test/reference)", "setting": "[2]; [8]", "result": 1.055}, {"measurement": "Difference in median tmax", "setting": "[2]; D14 vs D −3", "result": 0.00, "unit": "h"}, {"measurement": "AUC0–24 geometric mean ratio (test/reference)", "setting": "[2]; [9]", "result": 1.199}, {"measurement": "Cmax geometric mean ratio (test/reference)", "setting": "[2]; [9]", "result": 0.940}]}
{"smiles": "CC(C)C[C@H](NC(=O)[C@H](CCc1ccccc1)NC(=O)CN1CCOCC1)C(=O)N[C@@H](Cc1ccccc1)C(=O)N[C@@H](CC(C)C)C(=O)[C@@]1(C)CO1", "note": "[carfilzomib]", "values": [{"measurement": "Effect on the pharmacokinetics of midazolam", "setting": "[3]", "result": "No clinically significant effects"}]}
